Like-named read-outs stand apart in the source and are kept apart here.
Assays:
[1] = target: human PDE2A1 (Homo sapiens (Human), UniProt O00408); experiment: IMAP FP PDE selectivity panel, human PDE2A1; type: biochemical
Procedure, shortened: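 IMAP FP format: substrate 50 nM FAM-cAMP plus 1000 nM cGMP, enzyme (insect-cell GST-tagged human PDE2A1) at ~20% conversion, 60 min reaction at room temperature. Apparent inhibition constants calculated from parallel/perpendicular fluorescence with KM 10,000 nM.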

[2] = target: Rhesus PDE2A3 (Macaca mulatta, UniProt B3VTJ2); experiment: PDE2 fluorescence polarization (IMAP FP) inhibition assay, rhesus enzyme; type: biochemical, rhesus macaque
Chain of Rhesus PDE2A3 (B3VTJ2 1-941): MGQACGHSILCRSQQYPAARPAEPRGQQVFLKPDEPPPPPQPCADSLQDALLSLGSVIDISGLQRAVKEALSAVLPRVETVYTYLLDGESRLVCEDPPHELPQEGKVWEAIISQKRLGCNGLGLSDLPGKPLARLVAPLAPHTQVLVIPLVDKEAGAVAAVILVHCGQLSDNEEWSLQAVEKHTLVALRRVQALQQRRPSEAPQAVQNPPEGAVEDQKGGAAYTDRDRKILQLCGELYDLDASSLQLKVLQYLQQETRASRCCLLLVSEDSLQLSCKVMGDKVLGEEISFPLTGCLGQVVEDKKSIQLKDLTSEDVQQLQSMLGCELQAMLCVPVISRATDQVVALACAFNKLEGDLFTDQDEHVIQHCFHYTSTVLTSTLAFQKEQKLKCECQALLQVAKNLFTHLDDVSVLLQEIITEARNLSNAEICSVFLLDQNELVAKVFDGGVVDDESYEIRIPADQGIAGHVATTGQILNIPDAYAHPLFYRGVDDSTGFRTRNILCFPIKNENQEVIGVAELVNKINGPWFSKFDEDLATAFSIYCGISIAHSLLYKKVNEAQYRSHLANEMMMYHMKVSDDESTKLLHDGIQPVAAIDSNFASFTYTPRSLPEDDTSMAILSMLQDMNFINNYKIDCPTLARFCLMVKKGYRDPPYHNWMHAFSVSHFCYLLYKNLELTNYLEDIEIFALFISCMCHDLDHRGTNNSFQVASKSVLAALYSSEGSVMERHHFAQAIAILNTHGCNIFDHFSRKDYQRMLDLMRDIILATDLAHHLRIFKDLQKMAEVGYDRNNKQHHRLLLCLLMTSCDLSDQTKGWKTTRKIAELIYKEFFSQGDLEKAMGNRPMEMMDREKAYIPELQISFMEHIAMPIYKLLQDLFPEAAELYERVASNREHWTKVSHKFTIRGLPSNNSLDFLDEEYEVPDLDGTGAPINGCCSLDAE
Procedure, shortened: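 IMAP FP (mP from parallel and perpendicular fluorescence against substrate-only control) was read ≥1 h after adding binding reagent. The preceding 60 min room-temperature reaction contained FAM-cAMP (50 nM) and cGMP (1 uM) in pH 7.2 Tris buffer with MgCl2 and DTT. Enzyme was supernatant of sonicated AD293 cells expressing rhesus PDE2A3; compounds were 3-fold titrated, DMSO 1% final.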

[3] = Human PDE2, Lab B, read-out: Human PDE2 Ki (nM) - Lab B
[4] = Rhesus PDE2, Lab B, read-out: Rhesus PDE2 Ki (nM) - Lab B
[5] = Human PDE2, Lab A, read-out: Human PDE2 Ki (nM) - Lab A
[6] = Rhesus PDE2, Lab A, read-out: Rhesus PDE2 Ki (nM) - Lab A

Chain of human PDE2A1 (O00408 other isoform, or with tags, fused parts or gaps): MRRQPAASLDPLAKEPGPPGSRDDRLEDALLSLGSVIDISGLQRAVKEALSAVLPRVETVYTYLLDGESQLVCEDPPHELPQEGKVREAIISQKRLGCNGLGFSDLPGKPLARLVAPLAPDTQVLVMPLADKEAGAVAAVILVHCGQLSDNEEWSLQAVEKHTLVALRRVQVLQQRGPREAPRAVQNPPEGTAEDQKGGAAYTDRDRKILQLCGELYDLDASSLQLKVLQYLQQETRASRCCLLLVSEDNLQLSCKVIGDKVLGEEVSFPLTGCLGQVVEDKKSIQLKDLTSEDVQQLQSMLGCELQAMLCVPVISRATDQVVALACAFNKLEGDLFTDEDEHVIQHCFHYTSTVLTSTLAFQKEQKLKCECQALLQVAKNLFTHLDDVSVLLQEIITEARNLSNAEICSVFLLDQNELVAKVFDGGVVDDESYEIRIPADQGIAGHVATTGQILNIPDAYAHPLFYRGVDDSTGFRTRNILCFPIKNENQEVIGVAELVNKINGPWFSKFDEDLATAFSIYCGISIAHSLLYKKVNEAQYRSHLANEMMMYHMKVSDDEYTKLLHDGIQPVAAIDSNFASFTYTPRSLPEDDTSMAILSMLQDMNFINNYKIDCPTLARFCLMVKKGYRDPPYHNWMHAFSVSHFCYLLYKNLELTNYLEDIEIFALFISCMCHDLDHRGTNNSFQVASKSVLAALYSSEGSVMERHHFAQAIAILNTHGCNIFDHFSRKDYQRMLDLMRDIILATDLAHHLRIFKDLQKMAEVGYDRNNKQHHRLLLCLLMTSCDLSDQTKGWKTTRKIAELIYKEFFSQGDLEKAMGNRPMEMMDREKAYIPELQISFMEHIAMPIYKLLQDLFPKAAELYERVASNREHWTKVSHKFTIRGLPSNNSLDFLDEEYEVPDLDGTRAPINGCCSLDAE

Compound	Ki [1, 3] [nM]	Ki [2, 4] [nM]	Ki [1, 5] [nM]	Ki [2, 6] [nM]
Cc1nc(C(=O)NC(c2ccc(C3(C)CC3)c(F)c2)C(C)(C)C)cc(=O)[nH]1 (single isomer, unassigned) [Example 711, (R)- or (S)-N-(1-(3-fluoro-4-(1-methylcyclopropyl)phenyl)-2,2-dimethylpropyl)-2-methyl-6-oxo-1,6-dihydropyrimidine-4-carboxamide]	3.7	5.1	–	–
CC1(c2ccc(C(NC(=O)c3cc(=O)[nH]c(-c4ncccn4)n3)C(C)(C)C)cc2F)CC1 (single isomer, unassigned) [Example 717, (R)- or (S)-N-(1-(3-fluoro-4-(1-methylcyclopropyl)phenyl)-2,2-dimethylpropyl)-6-oxo-1,6-dihydro-[2,2′-bipyrimidine]-4-carboxamide]	14	17	–	–
Cc1nc(C(=O)NC2(c3ccc(C(F)(F)F)cc3)CC2)cc(=O)[nH]1 [Example 1, 2-Methyl-6-oxo-N-{1-[4-(trifluoromethyl)phenyl]cyclopropyl}-1,6-dihydropyrimidine-4-carboxamide]	36	28	16	21
Cc1nc(C(=O)NC2(c3ccc(C(F)(F)F)cc3)CCC2)cc(=O)[nH]1 [Example 2, 2-methyl-6-oxo-N-{1-[4-(trifluoromethyl)phenyl]cyclobutyl}-1,6-dihydropyrimidine-4-carboxamide]	–	–	24	38
COc1ccc(Cc2nc(C(=O)NC3(c4ccc(C(F)(F)F)cc4)CC3)cc(=O)[nH]2)cc1OC [Example 3, 2-(3,4-dimethoxybenzyl)-6-oxo-N-{1-[4-(trifluoromethyl)phenyl]-cyclopropyl}-1,6-dihydropyrimidine-4-carboxamide]	–	–	0.45	0.54
COc1ccc(Cc2nc(C(=O)N[C@H](C)c3ccc(C(F)(F)F)cc3)cc(=O)[nH]2)cc1OC [Example 4, 2-(3,4-dimethoxybenzyl)-6-oxo-N-{(1R)-1-[4-(trifluoromethyl)phenyl]ethyl}-1,6-dihydropyrimidine-4-carboxamide]	–	–	0.52	0.56
C[C@@H](NC(=O)c1cc(=O)[nH]c(Cc2cccnc2)n1)c1ccc(C(F)(F)F)cc1 [Example 6, 6-oxo-2-(pyridin-3-ylmethyl)-N-{(1R)-1-[4-(trifluoromethyl)phenyl]ethyl}-1,6-dihydropyrimidine-4-carboxamide]	–	–	33	55
C[C@@H](NC(=O)c1cc(=O)[nH]cn1)c1ccc(C(F)(F)F)cc1 [Example 8, (R)-6-oxo-N-(1-(4-(trifluoromethyl)phenyl)ethyl)-1,6-dihydropyrimidine-4-carboxamide]	–	–	334	410
C[C@@H](NC(=O)c1cc(=O)[nH]c(C2CC2)n1)c1ccc(OC(F)(F)F)cc1 [Example 10, 2-cyclopropyl-6-oxo-N-{(1R)-1-[4-(trifluoromethoxy)phenyl]ethyl}-1,6-dihydropyrimidine-4-carboxamide]	–	–	6	9.9
C[C@@H](NC(=O)c1cc(=O)[nH]c(C2CC2)n1)c1ccc(C(F)(F)F)cc1 [Example 11, 2-cyclopropyl-6-oxo-N-{(1R)-1-[4-(trifluoromethyl)phenyl]ethyl}-1,6-dihydropyrimidine-4-carboxamide]	–	–	16	21
Cc1nc(C(=O)N[C@H](C)c2ccc3ccccc3c2)cc(=O)[nH]1 [Example 16, 2-methyl-N-[(1R)-1-naphthalen-2-ylethyl]-6-oxo-1,6-dihydropyrimidine-4-carboxamide]	–	–	67	74
Cc1nc(C(=O)NC(C)c2ccc(C(F)(F)F)cn2)cc(=O)[nH]1 (centres unmarked) [Example 17, 2-methyl-6-oxo-N-{1-[5-(trifluoromethyl)pyridin-2-yl]ethyl}-1,6-dihydropyrimidine-4-carboxamide]	–	–	917	1160
Cc1nc(C(=O)NC(C)c2ccc(C(F)(F)F)cc2Cl)cc(=O)[nH]1 (centres unmarked) [Example 18, N-{1-[2-chloro-4-(trifluoromethyl)phenyl]ethyl}-2-methyl-6-oxo-1,6-dihydropyrimidine-4-carboxamide]	–	–	314	472
Cc1nc(C(=O)N[C@H](C)c2ccc(C(F)(F)F)cc2F)cc(=O)[nH]1 [Example 19, N-{(1R)-1-[2-fluoro-4-(trifluoromethyl)phenyl]ethyl}-2-methyl-6-oxo-1,6-dihydropyrimidine-4-carboxamide]	–	–	81	96
Cc1nc(C(=O)N[C@H](C)c2ccc(OC(F)(F)F)cc2F)cc(=O)[nH]1 [Example 21, N-{(1R)-1-[2-fluoro-4-(trifluoromethoxy)phenyl]ethyl}-2-methyl-6-oxo-1,6-dihydropyrimidine-4-carboxamide]	–	–	98	46
Cc1nc(C(=O)N[C@H](C)c2cc(F)c(C(F)(F)F)c(F)c2)cc(=O)[nH]1 [Example 26, N-{(1R)-[3,5-difluoro-4-(trifluoromethyl)phenyl]ethyl}-2-methyl-6-oxo-1,6-dihydropyrimidine-4-carboxamide]	–	–	104	231
CSCc1nc(C(=O)N[C@H](C)c2ccc(C(F)(F)F)cc2)cc(=O)[nH]1 [Example 36, 2-[(methylsulfanyl)methyl]-6-oxo-N-{(1R)-1-[4-(trifluoromethyl)phenyl]ethyl}-1,6-dihydropyrimidine-4-carboxamide]	–	–	116	163

Results, then the molecule that gave them:

Ki [1, 3] [nM]	Ki [2, 4] [nM]	Ki [1, 5] [nM]	Ki [2, 6] [nM]	Compound
–	–	16	21	Cc1nc(C(=O)N[C@H](C)c2ccc(OC(F)(F)F)cc2)cc(=O)[nH]1 [Example 9, 2-methyl-6-oxo-N-{(1R)-1-[4-(trifluoromethoxy)phenyl]ethyl}-1,6-dihydropyrimidine-4-carboxamide]
48	48	33	50	Cc1nc(C(=O)N[C@H](C)c2ccc(C(F)(F)F)cc2)cc(=O)[nH]1 [Example 13, 2-methyl-6-oxo-N-{(1R)-1-[4-(trifluoromethyl)phenyl]ethyl}-1,6-dihydropyrimidine-4-carboxamide]
–	–	3.5	4.4	C[C@@H](NC(=O)c1cc(=O)[nH]c(C2CC2)n1)c1ccc(SC(F)(F)F)cc1 [Example 15, (R)-2-cyclopropyl-6-oxo-N-(1-(4-((trifluoromethyl)thio)phenyl)ethyl)-1,6-dihydro pyrimidine-4-carboxamide]
–	–	24	25	Cc1nc(C(=O)N[C@H](C)c2ccc(C(F)(F)F)c(F)c2)cc(=O)[nH]1 [Example 20, N-{(1R)-1-[3-fluoro-4-(trifluoromethyl)phenyl]ethyl}-2-methyl-6-oxo-1,6-dihydropyrimidine-4-carboxamide]
14	14	8.6	13	Cc1nc(C(=O)N[C@H](C)c2ccc(OC(F)(F)F)c(F)c2)cc(=O)[nH]1 [Example 22, N-{(1R)-1-[3-fluoro-4-(trifluoromethoxy)phenyl]ethyl}-2-methyl-6-oxo-1,6-dihydropyrimidine-4-carboxamide]
–	–	663	1140	Cc1nc(C(=O)NC(C)c2ccc(C(F)(F)F)cc2C)cc(=O)[nH]1 (centres unmarked) [Example 25, 2-methyl-N-{1-[2-methyl-4-(trifluoromethyl)phenyl]ethyl}-6-oxo-1,6-dihydropyrimidine-4-carboxamide]
–	–	4.9	9.2	CC[C@@H](NC(=O)c1cc(=O)[nH]c(C)n1)c1ccc(SC(F)(F)F)cc1 [Example 29, 2-methyl-6-oxo-N-[(1R)-1-{4-[(trifluoromethyl)sulfanyl]phenyl}propyl]-1,6-dihydropyrimidine-4-carboxamide]
–	–	2.2	3.2	Cc1nc(C(=O)N[C@@H](c2ccc(SC(F)(F)F)cc2)C(C)C)cc(=O)[nH]1 [Example 30, 2-methyl-N-[(1R)-2-methyl-1-{4-[(trifluoromethyl)sulfanyl]phenyl}propyl]-6-oxo-1,6-dihydropyrimidine-4-carboxamide]
–	–	15	28	CC[C@@H](NC(=O)c1cc(=O)[nH]c(C)n1)c1ccc(OC(F)(F)F)cc1 [Example 31, 2-methyl-6-oxo-N-{(1R)-1-[4-(trifluoromethoxy)phenyl]propyl}-1,6-dihydropyrimidine-4-carboxamide]
–	–	5.1	11	Cc1nc(C(=O)N[C@@H](c2ccc(OC(F)(F)F)cc2)C(C)C)cc(=O)[nH]1 [Example 32, 2-methyl-N-{(1R)-2-methyl-1-[4-(trifluoromethoxy)phenyl]propyl}-6-oxo-1,6-dihydropyrimidine-4-carboxamide]
–	–	656	802	Cc1nc(C(=O)NC(C#N)c2ccc(C(F)(F)F)cc2)cc(=O)[nH]1 (centres unmarked) [Example 33, N-{cyano[4-(trifluoromethyl)phenyl]methyl}-2-methyl-6-oxo-1,6-dihydropyrimidine-4-carboxamide]
–	–	15	19	Cc1nc(C(=O)NC2(c3ccc(SC(F)(F)F)cc3)CC2)cc(=O)[nH]1 [Example 35, 2-Methyl-6-oxo-N-(1-(4-((trifluoromethyl)thio)phenyl)cyclopropyl)-1,6-dihydroy primidine-4-carboxamide]
27	19	14	17	Cc1nc(C(=O)N[C@H](C)c2ccc(S(F)(F)(F)(F)F)cc2)cc(=O)[nH]1 [Example 37, 2-methyl-6-oxo-N-{(1R)-1-[4-(pentafluoro-λ^6-sulfanyl)phenyl]ethyl}-1,6-dihydropyrimidine-4-carboxamide]
